Drawing on EP3212201B1, “NUCLEOSIDE KINASE INHIBITORS” (BCI Pharma, priority 2014, dated 2016), this text covers inhibition for 16 compounds.

Holding throughout (assay): FRET-based coupled-enzyme protein kinase inhibition assay
Assay type in all cases: biochemical
Common to all, as to conditions: compound at 10 µM, 1% DMSO

Assay [1] addresses MAPK1 (ERK2) (Homo sapiens, UniProt P28482). The method, boiled down: (§1)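 Inhibition was quantified ratiometrically, as coumarin over fluorescein emission following 400 nm excitation, on a doubly labeled peptide whose cleavage by development reagent requires it to remain unphosphorylated. Kinase reactions ran 60 min at room temperature with ATP at apparent Km.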
Assay [2] concerns the target T1, PHKG2 (Homo sapiens, UniProt P15735).
T1 sequence (P15735 1-406): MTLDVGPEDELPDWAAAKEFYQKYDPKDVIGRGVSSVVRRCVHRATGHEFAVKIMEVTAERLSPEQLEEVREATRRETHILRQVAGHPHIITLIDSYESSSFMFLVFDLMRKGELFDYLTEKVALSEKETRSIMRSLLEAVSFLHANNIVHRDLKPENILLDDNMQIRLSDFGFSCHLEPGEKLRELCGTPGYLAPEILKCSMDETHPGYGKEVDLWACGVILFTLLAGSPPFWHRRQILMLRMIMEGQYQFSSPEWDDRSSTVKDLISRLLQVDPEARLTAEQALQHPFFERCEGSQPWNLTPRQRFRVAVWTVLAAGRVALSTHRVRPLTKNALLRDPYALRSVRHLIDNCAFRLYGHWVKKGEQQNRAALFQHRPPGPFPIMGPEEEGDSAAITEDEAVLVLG
The method, boiled down: as §1

Assay [3] concerns the target FGFR1 (Homo sapiens, UniProt P11362). The method, boiled down:
as §1

Assay [4] addresses T2, DYRK3 (Homo sapiens, UniProt O43781).
T2 sequence (O43781 1-588): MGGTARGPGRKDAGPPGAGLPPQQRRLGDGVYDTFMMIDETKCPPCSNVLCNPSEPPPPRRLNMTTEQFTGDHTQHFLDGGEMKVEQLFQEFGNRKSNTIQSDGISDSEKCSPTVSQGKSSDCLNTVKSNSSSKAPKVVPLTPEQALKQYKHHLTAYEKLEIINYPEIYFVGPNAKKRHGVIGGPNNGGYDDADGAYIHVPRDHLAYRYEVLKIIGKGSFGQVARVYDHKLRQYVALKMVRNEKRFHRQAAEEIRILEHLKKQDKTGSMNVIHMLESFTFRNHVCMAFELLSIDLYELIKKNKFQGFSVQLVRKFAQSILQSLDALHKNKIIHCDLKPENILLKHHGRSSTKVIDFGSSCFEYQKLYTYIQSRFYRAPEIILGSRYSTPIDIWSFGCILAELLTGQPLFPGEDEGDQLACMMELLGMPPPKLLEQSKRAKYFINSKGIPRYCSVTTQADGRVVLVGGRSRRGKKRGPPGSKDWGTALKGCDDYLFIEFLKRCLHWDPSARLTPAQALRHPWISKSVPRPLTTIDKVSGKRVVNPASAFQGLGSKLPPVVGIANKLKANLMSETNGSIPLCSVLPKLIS
The method, boiled down:
as §1

Assay [5] addresses PRKACA (PKA) (Homo sapiens, UniProt P17612). The method, boiled down:
as §1

In assay [6] the target is ROCK1 (Homo sapiens, UniProt Q13464). The method, boiled down: as §1
Assay [7] deals with MAPK3 (ERK1) (Homo sapiens, UniProt P27361). The method, boiled down:
as §1

Chain of FGFR1 (P11362 22-822, species assumed): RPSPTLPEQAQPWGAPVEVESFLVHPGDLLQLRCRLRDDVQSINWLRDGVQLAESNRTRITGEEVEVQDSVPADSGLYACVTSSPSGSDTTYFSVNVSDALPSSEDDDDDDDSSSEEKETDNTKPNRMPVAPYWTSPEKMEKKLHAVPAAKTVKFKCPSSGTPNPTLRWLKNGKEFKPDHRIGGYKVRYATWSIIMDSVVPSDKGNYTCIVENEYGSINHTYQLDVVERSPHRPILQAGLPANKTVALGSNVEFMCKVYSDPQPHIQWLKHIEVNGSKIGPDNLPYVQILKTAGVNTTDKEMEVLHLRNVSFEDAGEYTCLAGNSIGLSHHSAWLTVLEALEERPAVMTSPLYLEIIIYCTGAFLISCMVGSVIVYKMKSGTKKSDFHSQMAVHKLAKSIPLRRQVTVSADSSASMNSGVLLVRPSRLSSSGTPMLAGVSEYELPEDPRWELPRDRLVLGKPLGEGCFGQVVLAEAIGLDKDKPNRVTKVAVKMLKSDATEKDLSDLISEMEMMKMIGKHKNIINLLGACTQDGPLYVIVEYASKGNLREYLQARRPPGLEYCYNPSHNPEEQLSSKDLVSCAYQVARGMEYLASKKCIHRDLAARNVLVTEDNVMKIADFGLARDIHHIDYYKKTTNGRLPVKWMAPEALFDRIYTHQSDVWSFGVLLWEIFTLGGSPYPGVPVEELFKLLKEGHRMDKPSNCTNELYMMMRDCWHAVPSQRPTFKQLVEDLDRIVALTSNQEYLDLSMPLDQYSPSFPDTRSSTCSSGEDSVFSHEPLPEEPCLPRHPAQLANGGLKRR
Chain of ROCK1 (Q13464 whole entry, species assumed): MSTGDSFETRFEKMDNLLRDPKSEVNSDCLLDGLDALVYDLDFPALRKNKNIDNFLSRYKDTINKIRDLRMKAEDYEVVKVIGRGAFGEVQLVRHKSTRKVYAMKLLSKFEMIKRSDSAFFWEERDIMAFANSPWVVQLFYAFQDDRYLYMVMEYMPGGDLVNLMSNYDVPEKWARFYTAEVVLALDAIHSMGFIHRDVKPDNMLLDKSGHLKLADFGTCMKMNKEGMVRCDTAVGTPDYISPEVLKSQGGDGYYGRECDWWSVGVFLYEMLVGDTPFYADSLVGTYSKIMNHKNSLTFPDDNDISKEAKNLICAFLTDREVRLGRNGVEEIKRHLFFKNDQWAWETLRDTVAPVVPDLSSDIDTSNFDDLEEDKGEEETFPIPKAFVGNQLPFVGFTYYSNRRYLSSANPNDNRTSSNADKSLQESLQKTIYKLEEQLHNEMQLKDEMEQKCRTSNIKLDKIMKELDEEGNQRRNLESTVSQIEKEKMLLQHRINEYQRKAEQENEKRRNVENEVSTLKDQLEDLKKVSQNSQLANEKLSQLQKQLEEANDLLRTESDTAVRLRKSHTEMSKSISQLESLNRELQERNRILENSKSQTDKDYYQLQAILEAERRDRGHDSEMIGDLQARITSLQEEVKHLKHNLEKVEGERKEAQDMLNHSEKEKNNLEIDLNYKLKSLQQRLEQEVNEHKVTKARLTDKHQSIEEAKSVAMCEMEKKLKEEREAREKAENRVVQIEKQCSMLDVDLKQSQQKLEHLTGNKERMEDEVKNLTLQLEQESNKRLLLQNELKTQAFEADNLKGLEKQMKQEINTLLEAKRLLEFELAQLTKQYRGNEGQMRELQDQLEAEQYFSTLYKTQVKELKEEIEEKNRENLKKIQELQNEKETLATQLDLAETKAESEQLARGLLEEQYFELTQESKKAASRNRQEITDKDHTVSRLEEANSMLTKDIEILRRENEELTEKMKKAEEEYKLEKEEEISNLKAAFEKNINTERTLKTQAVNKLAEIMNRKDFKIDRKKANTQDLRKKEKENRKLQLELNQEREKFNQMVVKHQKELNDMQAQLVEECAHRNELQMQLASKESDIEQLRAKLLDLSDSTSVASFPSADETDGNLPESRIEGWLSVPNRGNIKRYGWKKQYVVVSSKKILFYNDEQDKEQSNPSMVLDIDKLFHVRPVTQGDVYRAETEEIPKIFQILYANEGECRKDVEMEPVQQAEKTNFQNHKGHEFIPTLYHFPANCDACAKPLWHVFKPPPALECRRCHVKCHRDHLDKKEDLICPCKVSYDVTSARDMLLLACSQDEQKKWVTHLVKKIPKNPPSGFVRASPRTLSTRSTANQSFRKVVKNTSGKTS
Chain of MAPK3 (ERK1) (P27361 whole entry, species assumed): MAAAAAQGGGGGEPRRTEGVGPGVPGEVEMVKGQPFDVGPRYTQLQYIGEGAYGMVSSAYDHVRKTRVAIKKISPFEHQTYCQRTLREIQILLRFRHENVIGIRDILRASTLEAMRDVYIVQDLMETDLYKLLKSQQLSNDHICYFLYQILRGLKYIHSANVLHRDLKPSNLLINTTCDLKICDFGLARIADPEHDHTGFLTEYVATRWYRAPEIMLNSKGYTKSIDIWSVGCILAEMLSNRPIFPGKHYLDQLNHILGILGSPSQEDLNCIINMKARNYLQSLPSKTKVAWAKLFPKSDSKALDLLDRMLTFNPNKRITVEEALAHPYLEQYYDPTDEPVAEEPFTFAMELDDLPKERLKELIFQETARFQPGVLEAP
Chain of MAPK1 (ERK2) (P28482 whole entry, species assumed): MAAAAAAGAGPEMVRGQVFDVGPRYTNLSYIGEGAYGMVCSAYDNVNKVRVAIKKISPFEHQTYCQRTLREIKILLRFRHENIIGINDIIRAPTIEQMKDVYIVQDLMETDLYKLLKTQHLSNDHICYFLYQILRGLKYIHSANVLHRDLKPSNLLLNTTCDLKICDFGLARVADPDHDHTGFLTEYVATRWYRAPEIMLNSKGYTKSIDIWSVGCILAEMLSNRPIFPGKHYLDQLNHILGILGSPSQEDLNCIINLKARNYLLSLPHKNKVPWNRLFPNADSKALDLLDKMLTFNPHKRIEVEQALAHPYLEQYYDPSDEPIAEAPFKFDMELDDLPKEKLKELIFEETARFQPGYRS

Take `Nc1ncnc2c1ncn2[C@@H]1O[C@H](COC(=O)NCCCc2nc3ccccc3[nH]2)[C@@H](O)[C@H]1O` [Compound C1]: the inhibition at 10 µM is 7% in assay [1]; -3% in assay [2]; 21% in assay [3]; 12% in assay [4]; 21% in assay [5]; 18% in assay [6]. In assay [7], the inhibition at 10 µM was determined as 5%.

As for `C[C@@H](NC(=O)OC[C@H]1O[C@@H](n2cnc3c(N)ncnc32)[C@H](O)[C@@H]1O)c1ccc(Cl)cc1` [Compound C4], the inhibition at 10 µM in assay [1] is 8%; in assay [2] it was -2%; in assay [3], 6%; in assay [4], 5%; in assay [5], 20%; in assay [6], -7%. Further, in assay [7], the inhibition at 10 µM worked out at 6%.

Consider `Nc1ncnc2c1ncn2[C@@H]1O[C@H](COC(=O)NC[C@H](O)CO)[C@@H](O)[C@H]1O` [Compound C8], for which the inhibition at 10 µM in assay [1] was 16%; in assay [2] it was -3%; in assay [3] it was 26%; in assay [4], 31%; in assay [5], 43%; in assay [6] it was 2%. In addition, the inhibition at 10 µM in assay [7] turned out to be 12%.

As to `Nc1ncnc2c1ncn2[C@@H]1O[C@H](COC(=O)N2CCC[C@H]2CO)[C@@H](O)[C@H]1O` [Compound C9], the inhibition at 10 µM is 11% in assay [1]; -4% in assay [2]; 3% in assay [3]; 11% in assay [4]; -6% in assay [5]; -10% in assay [6]. For the same compound, the inhibition at 10 µM in assay [7] was 5%.

Regarding `Nc1ncnc2c1ncn2[C@@H]1O[C@H](COC(=O)N[C@@H]2CCN(Cc3ccccc3)C2)[C@@H](O)[C@H]1O` [Compound C10], the inhibition at 10 µM in assay [1] was 8%; in assay [2] it was 0%; in assay [3], 20%; in assay [4], 8%; in assay [5], 10%; in assay [6], -2%. For the same compound, the inhibition at 10 µM in assay [7] was determined as 5%.

Turning to `Nc1ncnc2c1ncn2[C@@H]1O[C@H](COC(=O)N2CCN(Cc3ccccc3)CC2CO)[C@@H](O)[C@H]1O` (stereo partly shown) [Compound C13], the inhibition at 10 µM is 10% in assay [1]; 0% in assay [2]; 5% in assay [3]; 9% in assay [4]; -1% in assay [5]; -7% in assay [6]. The inhibition at 10 µM in assay [7] was determined as 5%.

For the compound `CC(C)N1CCC(NC(=O)OC[C@H]2O[C@@H](n3cnc4c(N)ncnc43)[C@H](O)[C@@H]2O)CC1` [Compound C19], the inhibition at 10 µM in assay [1] is 7%; in assay [2], -3%; in assay [3], 6%; in assay [4], 9%; in assay [5] it was 4%; in assay [6], 2%. The inhibition at 10 µM in assay [7] stood at 4%.

As for `Nc1ncnc2c1ncn2[C@@H]1O[C@H](COC(=O)NCCN2CCCC2=O)[C@@H](O)[C@H]1O` [Compound C22], the inhibition at 10 µM was 9% in assay [1]; -6% in assay [2]; 0% in assay [3]; 3% in assay [4]; 0% in assay [5]; -7% in assay [6]. For the same compound, the inhibition at 10 µM in assay [7] was found to be 1%.

As for `Nc1ncnc2c1ncn2[C@@H]1O[C@H](COC(=O)N2CCN(CCc3ccccc3)CC2)[C@@H](O)[C@H]1O` [Compound C26], the inhibition at 10 µM in assay [1] was 11%; in assay [2] it was -1%; in assay [3] it was 9%; in assay [4] it was 2%; in assay [5], -1%; in assay [6], -12%. Moreover, the inhibition at 10 µM in assay [7] stood at 8%.

On to `CN1CCN(CCNC(=O)OC[C@H]2O[C@@H](n3cnc4c(N)ncnc43)[C@H](O)[C@@H]2O)CC1` [Compound C46], for which the inhibition at 10 µM was 9% in assay [1]; 0% in assay [2]; 9% in assay [3]; 4% in assay [4]; 3% in assay [5]; -3% in assay [6]. Moreover, the inhibition at 10 µM in assay [7] was 2%.

`Nc1ncnc2c1ncn2[C@@H]1O[C@H](COC(=O)N2CCC(Cc3ccc(F)cc3)C2)[C@@H](O)[C@H]1O` (stereo partly shown) [Compound C66]: the inhibition at 10 µM in assay [1] was 9%; in assay [2] it was -2%; in assay [3], 13%; in assay [4], 7%; in assay [5], 1%; in assay [6] it was -1%. Moreover, the inhibition at 10 µM in assay [7] is -2%.

Consider `N#CCCN1CCN(C(=O)OC[C@H]2O[C@@H](n3cnc4c(N)ncnc43)[C@H](O)[C@@H]2O)CC1` [Compound C70], for which the inhibition at 10 µM was 16% in assay [1]; 1% in assay [2]; 1% in assay [3]; 6% in assay [4]; -4% in assay [5]; -3% in assay [6]. Besides, the inhibition at 10 µM in assay [7] came out at 4%.

Consider `CN(C)CCNC(=O)OC[C@H]1O[C@@H](n2cnc3c(N)ncnc32)[C@H](O)[C@@H]1O` [Compound C85], for which the inhibition at 10 µM in assay [1] is 8%; in assay [2] it was 1%; in assay [3], 4%; in assay [4], 7%; in assay [5], -2%; in assay [6], -7%. In addition, the inhibition at 10 µM in assay [7] was 2%.

On to `Nc1ncnc2c1ncn2[C@@H]1O[C@H](COC(=O)N2CCN(C(=O)N3CCOCC3)CC2)[C@@H](O)[C@H]1O` [Compound C89], for which the inhibition at 10 µM in assay [1] is 9%; in assay [2], -2%; in assay [3], 16%; in assay [4], 3%; in assay [5], -1%; in assay [6], -15%. Moreover, the inhibition at 10 µM in assay [7] worked out at 3%.

In the case of `CS(=O)(=O)N1CC2(CCN(C(=O)OC[C@H]3O[C@@H](n4cnc5c(N)ncnc54)[C@H](O)[C@@H]3O)CC2)c2ccccc21` [Compound C98], the inhibition at 10 µM in assay [1] was 16%; in assay [2], -1%; in assay [3], 9%; in assay [4] it was 5%; in assay [5], -2%; in assay [6], -8%. Besides, in assay [7], the inhibition at 10 µM worked out at 8%.

Take `Nc1ncnc2c1ncn2[C@@H]1O[C@H](COC(=O)N2CCS(=O)(=O)CC2)[C@@H](O)[C@H]1O` [Compound C100]: the inhibition at 10 µM is 13% in assay [1]; 1% in assay [2]; 0% in assay [3]; 12% in assay [4]; -3% in assay [5]; -6% in assay [6]. Further, in assay [7], the inhibition at 10 µM is 10%.
